Laboratory results as given in patent US20240293400A1, “NOVEL AZAINDOLE DERIVATIVES AS ANTIVIRAL AGENTS” (Centre National de la Recherche Scientifique, priority 2021, published 2024).

What was measured:
[1] = tested on: DENV subtype 2 strain (DENV2); experiment: Antiviral activity against the dengue virus in HeLa cells; assay type: cell-based; conditions: 72 h, DENV2, 3 days
[2] = tested on: ZIKV BeH8 strain; conditions: cited from earlier work
[3] = tested on: CHIKV virus, LR-OPY1 strain; experiment: Antiviral activity against the Chikungunya virus in HeLa cells; assay type: cell-based; conditions: 24 h

In the case of Nc1nc(Nc2ccc3c(c2)CC[C@@H](N2CCCC2)CC3)nn1-c1cc2c(nn1)-c1ccccc1CCC2 [R428/Bemcentinib, Bemcentinib], the IC50 [1] is given as 488 nM, the “concentrations of efficacy against the ZIKV virus described in the literature” value [2] is given as 1 to 3 µM and the IC50 [3] is given as 239 nM.
